Values of other authors, collected in patent publication EP0611214A2, “Acidic composition and process of using same” (MINNESOTA MINING AND MANUFACTURING COMPANY, priority 1993, dated 1994).

details: in water, as reported in U.S. Pat. No. 5,080,822, column 4

| Structure (SMILES) | aqueous ambient temperature solubility in weight percent [weight percent] |
| --- | --- |
| OCCc1ccccc1 [8-phenylethanol] | 1.6 |
| OCc1ccccc1 [benzyl alcohol] | 4.4 |
| OCCOc1ccccc1 [2-phenoxyethanol] | 2.3 |
| CC(=O)c1ccccc1 [acetophenone] | 0.5 |
| CC(O)COc1ccccc1 (centres unmarked) [1-phenoxy-2-propanol] | 1.1 |
